# Source: US8916499B2, “Herbicidal compositions comprising 4-amino-3-chloro-5-fluoro-6-(4-chloro-2-fluoro-3-methoxyphenyl) pyridine-2-carboxylic acid or a derivative thereof and a protoporphyrinogen oxidase inhibitor” (Dow AgroSciences LLC, priority 2012, dated 2014)
# Legend:
# IPOHE [1] = experiment: Postemergence foliar-applied weed control, direct seeded rice, greenhouse (Example I); format: in vivo, Ipomoea hederacea Jacq.
# ECHCO = experiment: as above; format: in vivo, Echinochloa colona (L.) Link; conditions: g ae/ha Compound A Acid+g ai/ha oxyfluorfen (SC): r24 4.38+0, r25 8.75+0, r26 0+90, r27 4.38+90, r28 8.75+90
# SCPJU = experiment: In-water applied weed control, transplanted paddy rice, greenhouse (Example II); format: in vivo, Schoenoplectus juncoides (Roxb.) Palla
# DIGSA = experiment: Postemergence foliar-applied weed control, direct seeded rice, greenhouse (Example I); format: in vivo, Digitaria sanguinalis (L.) Scop.
# ECHCG [2] = experiment: as above; format: in vivo, Echinochloa crusgalli (L.) Beauv.
# CYPRO = experiment: In-water applied weed control, transplanted paddy rice, greenhouse (Example II); format: in vivo, Cyperus rotundus L.
# IPOHE [3] = experiment: Pre-emergence soil-applied weed control, greenhouse (Example IV); format: in vivo, Ipomoea hederacea (L.) Jacq.
# Excerpt: Seeds or nutlets of the desired test plant species were planted in a soil matrix prepared by mixing a loam soil (32 percent silt, 23 percent clay, and 45 percent sand, with a pH of about 6.5 and an organic matter content of about 1.9 percent) and calcareous grit in an 80 to 20 ratio. The soil matrix was contained in plastic pots with a volume of 1 quart and a surface area of 83.6 square centimeters (cm^2).
# Treatments consisted of the benzyl ester of 4-amino-3-chloro-5-fluoro-6-(4-chloro-2-fluoro-3-methoxy-phenyl)pyridine-2-carboxylic acid (compound A) formulated as an SC (suspension concentrate) and various herbicidal components alone and in combination. Forms of compound A were applied on an acid equivalent basis.
# Other herbicidal components were applied on an acid equivalent or active ingredient basis and included the protoporphyrinogen oxidase (PPO)-inhibiting herbicides, flumioxazin formulated as Payload® and oxadiazon formulated as Ronstar® 50W.
# Treatment requirements were calculated based upon the rates being tested, the concentration of active ingredient or acid equivalent in the formulation, and a 12 mL application volume at a rate of 187 L/ha.
# For treatments comprised of formulated compounds, measured amounts of compounds were placed individually in 25 mL glass vials and diluted in a volume of 1.25% (v/v) Agri-Dex® crop oil concentrate (COC) to obtain 12× stock solutions. […] Application solutions were prepared by adding an appropriate amount of each stock solution (e.g., 1 mL) and diluted to the appropriate final concentrations with the addition of 10 mL of an aqueous mixture of 1.25% (v/v) COC so that the final spray solutions contained 1.25% (v/v) COC.
# All stock solutions and applications solutions were visually inspected for compound compatibility prior to application. Spray solutions were applied to the soil with an overhead Mandel track sprayer equipped with a 8002E nozzles calibrated to deliver 187 L/ha over an application area of 0.503 m^2 at a spray height of 18 inches (46 cm) above average pot height. Control pots were sprayed in the same manner with the solvent blank.
# The treated and control pots were placed in a greenhouse and top watered as needed. When required to ensure good germination and healthy plants, a fungicide treatment and/or other chemical or physical treatment was applied. The pots were maintained in a greenhouse with an approximate 14 hr photoperiod which was maintained at about 29° C. during the day and 26° C. during the night. Nutrients (Peters® Excel 15-5-15 5-Ca 2-Mg) were applied in the irrigation solution as needed and water was added on a regular basis. Supplemental lighting was provided with overhead metal halide 1000-Watt lamps as necessary. After approximately 4 weeks, the condition of the test plants as compared with that of the untreated plants was determined visually and scored on a scale of 0 to 100 percent where 0 corresponds to no injury or growth inhibition and 100 corresponds to complete kill.
# Colby's equation was used to determine the herbicidal effects expected from the mixtures (Colby, S. R. 1967. Calculation of the synergistic and antagonistic response of herbicide combinations. Weeds 15:20-22.).
# The following equation was used to calculate the expected activity of mixtures containing two active ingredients, A and B: Expected=A+B−(A×B/100)
# ECHOR = experiment: In-water applied weed control, transplanted paddy rice, greenhouse (Example II); format: in vivo, Echinochloa oryzoides (Ard.) Fritsch
# FIMMI = experiment: as above; format: in vivo, Fimbristylis miliacea (L.) Vahl
# ECHCG [4] = experiment: as above; format: in vivo, Echinochloa crus-galli (L.) P. Beauv.; conditions: 56.25 g ai/ha alone
# LEFCH [5] = experiment: as above; format: in vivo, Leptochloa chinensis (L.) Nees; conditions: 35 g ae/ha alone
# LEFCH [6] = experiment: Postemergence foliar-applied weed control, direct seeded rice, greenhouse (Example I); format: in vivo, Leptochloa chinensis (L.) Nees; conditions: g ae/ha Compound A n-Butyl Ester+g ai/ha carfentrazone-ethyl: r11 16+0, r12 0+28, r13 16+28
# [7] = g ae/ha Compound A n-Butyl Ester+g ai/ha oxadiazon: r11 17.5+0, r12 0+250, r13 17.5+250
smiles,measurement,setting,value
"CCOc1cc(Oc2ccc(C(F)(F)F)cc2Cl)ccc1[N+](=O)[O-] [Oxyfluorfen, 2-chloro-1-(3-ethoxy-4-nitrophenoxy)-4-(trifluoromethyl)benzene, reference compound]",Visual Weed Control (%) - 23 DAA IPOHE Obs,"IPOHE [1]; g ae/ha Compound A Benzyl Ester+g ai/ha oxyfluorfen (SC): r36 4.38+0, r37 8.75+0, r38 17.5+0, r39 0+90, r40 0+180, r41 4.38+90, r42 8.75+90, r43 17.5+90, r44 4.38+180, r45 8.75+180, r46 17.5+180",85%
same,Visual Weed Control (%) - 23 DAA ECHCO Obs,ECHCO,50%
same,Visual Weed Control (%) - 22 DAA SCPJU Obs,"SCPJU; g ae/ha Compound A Acid+g ai/ha oxyfluorfen (technical): r19 8.75+0, r20 17.5+0, r21 35+0, r22 0+180, r23 0+360, r24 8.75+180, r25 17.5+180, r26 35+180, r27 8.75+360, r28 17.5+360, r29 35+360",0%
same,Visual Weed Control (%) - 23 DAA DIGSA Obs,"DIGSA; g ae/ha Compound A Benzyl Ester+g ai/ha oxyfluorfen (SC): r14 4.38+0, r15 8.75+0, r16 17.5+0, r17 0+180, r18 4.38+180, r19 8.75+180, r20 17.5+180",60%
same,Visual Weed Control (%) - 21 DAA DIGSA Obs,"DIGSA; g ae/ha Compound A Benzyl Ester+g ai/ha oxyfluorfen (technical): r15 4.38+0, r16 8.75+0, r17 17.5+0, r18 0+180, r19 4.38+180, r20 8.75+180, r21 17.5+180",50%
same,Visual Weed Control (%) - 23 DAA ECHCG Obs,"ECHCG [2]; g ae/ha Compound A Acid+g ai/ha oxyfluorfen (SC): r13 4.38+0, r14 8.75+0, r15 17.5+0, r16 0+180, r17 4.38+180, r18 8.75+180, r19 17.5+180",30%
same,Visual Weed Control (%) - 21 DAA CYPRO Obs,"CYPRO; g ae/ha Compound A Acid+g ai/ha oxyfluorfen (SC): r28 16+0, r29 32+0, r30 64+0, r31 0+135, r32 0+270, r33 16+135, r34 32+135, r35 64+135, r36 16+270, r37 32+270, r38 64+270",0%
same,Visual Weed Control (%) - 22 DAA CYPRO Obs,"CYPRO; g ae/ha Compound A Acid+g ai/ha oxyfluorfen (technical): r11 10.6+0, r12 21.2+0, r13 42.4+0, r14 0+180, r15 10.6+180, r16 21.2+180, r17 42.4+180",50%
same,Visual Weed Control (%) - 21 DAA CYPRO Obs,"CYPRO; g ae/ha Compound A Benzyl Ester+g ai/ha oxyfluorfen (SC): r11 32+0, r12 0+135, r13 0+270, r14 32+135, r15 32+270",0%
"CCOC(=O)COc1cc(-c2nn(C)c(OC(F)F)c2Cl)c(F)cc1Cl [Pyraflufen-ethyl, ethyl 2-[2-chloro-5-[4-chloro-5-(difluoromethoxy)-1-methyl-1H-pyrazol-3-yl]-4-fluorophenoxy]acetate, reference compound]",Visual Weed Control (%) - 21 DAA ECHCG Obs,"ECHCG [2]; g ae/ha Compound A Benzyl Ester+g ai/ha pyraflufen-ethyl: r11 8+0, r12 0+5.3, r13 0+10.6, r14 8+5.3, r15 8+10.6",15%
"C#CCOc1cc(-n2nc(C(C)(C)C)oc2=O)c(Cl)cc1Cl [Oxadiargyl, 3-[2,4-dichloro-5-(2-propynyloxy)phenyl]-5-(1,1-dimethylethyl)-1,3,4-oxadiazol-2(3H)-one]",Visual Weed Control (%) - 22 DAA IPOHE Obs,"IPOHE [1]; g ae/ha Compound A Acid+g ai/ha oxadiargyl: r10 4.38+0, r11 8.75+0, r12 17.5+0, r13 0+50, r14 4.38+50, r15 8.75+50, r16 17.5+50",25%
same,Visual Weed Control (%) - 22 DAA IPOHE Obs,"IPOHE [1]; g ae/ha Compound A Benzyl Ester+g ai/ha oxadiargyl: r11 4.38+0, r12 8.75+0, r13 0+50, r14 4.38+50, r15 8.75+50",25%
"CC(C)Oc1cc(-n2nc(C(C)(C)C)oc2=O)c(Cl)cc1Cl [Oxadiazon, 3-[2,4-dichloro-5-(1-methylethoxy)phenyl]-5-(1,1-dimethylethyl)-1,3,4-oxadiazol-2(3H)-one]",Visual Weed Control (%) - 21 DAA IPOHE Obs,"IPOHE [1]; g ae/ha Compound A Benzyl Ester+g ai/ha oxadiazon: r33 17.5+0, r34 0+250, r35 17.5+250",5%
same,Visual Weed Control (%) - 21 DAA IPOHE Obs,IPOHE [1]; [7],5%
same,Visual Weed Control (%) - 20 DAA IPOHE Obs,"IPOHE [1]; second section, g ae/ha Compound A Acid+g ai/ha oxadiazon: r23 17.5+0, r24 35+0, r25 0+250, r26 17.5+250, r27 35+250",5%
same,Visual Weed Control (%) - 32 DAA IPOHE Obs,IPOHE [3]; 560 g ai/ha alone,50%
same,Visual Weed Control (%) - 32 DAA IPOHE Obs,IPOHE [3]; 1120 g ai/ha alone,100%
same,Visual Weed Control (%) - 21 DAA ECHOR Obs,ECHOR; 62.5 g ai/ha alone,15%
same,Visual Weed Control (%) - 21 DAA ECHOR Obs,ECHOR; 250 g ai/ha alone,18%
same,Visual Weed Control (%) - 21 DAA ECHOR Obs,"ECHOR; second block, g ae/ha Compound A Acid+g ai/ha oxadiazon: r22 35+0, r23 70+0, r24 0+250, r25 35+250, r26 70+250",18%
"CC(C)=C1OC(=O)N(c2cc(OC3CCCC3)c(Cl)cc2F)C1=O [Pentoxazone, 3-[4-chloro-5-(cyclopentyloxy)-2-fluorophenyl]-5-(1-methylethylidene)-2,4-oxazolidinedione]",Visual Weed Control (%) - 21 DAA SCPJU Obs,SCPJU; 56.25 g ai/ha alone,0%
same,Visual Weed Control (%) - 21 DAA SCPJU Obs,SCPJU; 112.5 g ai/ha alone,0%
same,Visual Weed Control (%) - 21 DAA FIMMI Obs,FIMMI; 56.25 g ai/ha alone,25%
same,Visual Weed Control (%) - 21 DAA FIMMI Obs,FIMMI; 112.5 g ai/ha alone,20%
same,Visual Weed Control (%) - 21 DAA ECHCG Obs,ECHCG [4],0%
same,Visual Weed Control (%) - 21 DAA CYPRO Obs,CYPRO; 56.25 g ai/ha alone,0%
same,Visual Weed Control (%) - 21 DAA CYPRO Obs,CYPRO; 112.5 g ai/ha alone,0%
CCCCOC(=O)c1nc(-c2ccc(Cl)c(OC)c2F)c(F)c(N)c1Cl [Compound A n-Butyl Ester],Visual Weed Control (%) - 21 DAA IPOHE Obs,IPOHE [1]; [7],40%
same,Visual Weed Control (%) - 21 DAA ECHOR Obs,ECHOR; 35 g ae/ha alone,25%
same,Visual Weed Control (%) - 21 DAA ECHOR Obs,ECHOR; 70 g ae/ha alone,38%
same,Visual Weed Control (%) - 21 DAA LEFCH Obs,LEFCH [5],8%
same,Visual Weed Control (%) - 19 DAA LEFCH Obs,LEFCH [6],10%
